The source of these data is PMC11298173 (Drug Design, Development and Therapy, 2024).

One data set deals with patients with IgAN. The conditions noted are these: TESTING trial, at 3 months, diminishing over time; cited from earlier work.
A short description of data set [1]: NEF-105 study: budesonide plasma pharmacokinetics. Conditions: human, po. It counts as in vivo.

In the case of `C[C@H]1C[C@@H]2[C@H]([C@@H](O)C[C@@]3(C)[C@H]2CC[C@]3(O)C(=O)CO)[C@@]2(C)C=CC(=O)C=C12` [methylprednisolone], the “Effect on proteinuria vs placebo” value in the data set on patients with IgAN is “substantial effect”.

As for `CCCC1O[C@@H]2C[C@H]3[C@@H]4CCC5=CC(=O)C=C[C@]5(C)[C@H]4[C@@H](O)C[C@]3(C)[C@]2(C(=O)CO)O1` (some centres unmarked) [budesonide], the half-life (usually the time needed for the level to fall by half in the phase considered) in data set [1] was approximately 5 h.
